Reference: PubChem BioAssay (NCI)
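Tested at 5 concentrations; 48 h exposure; 96-well plates; endpoints linearly interpolated, else capped at highest concentration. TGI: total growth inhibition.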

Experiments:
Assay in all cases: NCI-60 cell line screen, 48 h
SK-MEL-2 melanoma = tested on: SK-MEL-2 melanoma
SW-620 colon = tested on: SW-620 colon
MDA-MB-435 = tested on: MDA-MB-435
HCC-2998 colon = tested on: HCC-2998 colon
SF-539 CNS = tested on: SF-539 CNS
MCF7 breast = tested on: MCF7 breast
SN12C renal = tested on: SN12C renal
NCI-H23 lung = tested on: NCI-H23 lung
MOLT-4 leukemia = tested on: MOLT-4 leukemia
HCT-116 colon = tested on: HCT-116 colon
OVCAR-5 ovarian = tested on: OVCAR-5 ovarian
CCRF-CEM leukemia = tested on: CCRF-CEM leukemia
K-562 leukemia = tested on: K-562 leukemia
SK-OV-3 ovarian = tested on: SK-OV-3 ovarian
HOP-92 NSCLC = tested on: HOP-92 NSCLC
CAKI-1 renal = tested on: CAKI-1 renal
NCI-H226 lung = tested on: NCI-H226 lung
NCI-H522 lung = tested on: NCI-H522 lung
RXF 393 renal = tested on: RXF 393 renal
UO-31 renal = tested on: UO-31 renal
COLO 205 colon = tested on: COLO 205 colon
U251 CNS = tested on: U251 CNS
SNB-19 CNS = tested on: SNB-19 CNS
SK-MEL-28 melanoma = tested on: SK-MEL-28 melanoma
MDA-N = tested on: MDA-N
HOP-62 NSCLC = tested on: HOP-62 NSCLC
786-0 renal = tested on: 786-0 renal
DU-145 prostate = tested on: DU-145 prostate
OVCAR-4 ovarian = tested on: OVCAR-4 ovarian
SK-MEL-5 melanoma = tested on: SK-MEL-5 melanoma
HT29 colon = tested on: HT29 colon
ACHN renal = tested on: ACHN renal
EKVX NSCLC = tested on: EKVX NSCLC
OVCAR-8 ovarian = tested on: OVCAR-8 ovarian
HL-60(TB) leukemia = tested on: HL-60(TB) leukemia
HS 578T breast = tested on: HS 578T breast
MDA-MB-231 breast = tested on: MDA-MB-231 breast
A549 NSCLC = tested on: A549 NSCLC
SR leukemia = tested on: SR leukemia
NCI-H460 lung = tested on: NCI-H460 lung
UACC-257 melanoma = tested on: UACC-257 melanoma
PC-3 prostate = tested on: PC-3 prostate
RPMI-8226 leukemia = tested on: RPMI-8226 leukemia
HCT-15 colon = tested on: HCT-15 colon
SF-268 CNS = tested on: SF-268 CNS
SF-295 CNS = tested on: SF-295 CNS
SNB-75 CNS = tested on: SNB-75 CNS
LOX IMVI melanoma = tested on: LOX IMVI melanoma
M14 melanoma = tested on: M14 melanoma
KM12 colon = tested on: KM12 colon
BT-549 breast = tested on: BT-549 breast
OVCAR-3 ovarian = tested on: OVCAR-3 ovarian
T-47D breast = tested on: T-47D breast
MALME-3M melanoma = tested on: MALME-3M melanoma
TK-10 renal = tested on: TK-10 renal
NCI/ADR-RES ovarian = tested on: NCI/ADR-RES ovarian
UACC-62 melanoma = tested on: UACC-62 melanoma
IGROV1 ovarian = tested on: IGROV1 ovarian
A498 renal = tested on: A498 renal

## COc1ccc(C(=O)/C=C2\C(=O)Nc3ccc(Br)cc32)cc1
SK-MEL-2 melanoma
  TGI: 37.4 µM
SW-620 colon
  TGI: 7.83 µM
MDA-MB-435
  TGI: 27.8 µM
HCC-2998 colon
  TGI: 12.3 µM
SF-539 CNS
  TGI: 25.7 µM
MCF7 breast
  TGI: 21.1 µM
SN12C renal
  TGI: 6.62 µM
NCI-H23 lung
  TGI: 16.2 µM
MOLT-4 leukemia
  TGI: > 21.9 µM
HCT-116 colon
  TGI: 8.7 µM
OVCAR-5 ovarian
  TGI: 46.1 µM
CCRF-CEM leukemia
  TGI: 32.2 µM
K-562 leukemia
  TGI: > 100 µM
SK-OV-3 ovarian
  TGI: 29.6 µM
HOP-92 NSCLC
  TGI: 8.39 µM
CAKI-1 renal
  TGI: 21.4 µM
NCI-H226 lung
  TGI: 28.6 µM
NCI-H522 lung
  TGI: 13.4 µM
RXF 393 renal
  TGI: 5.08 µM
UO-31 renal
  TGI: 5.05 µM
COLO 205 colon
  TGI: 4.56 µM
U251 CNS
  TGI: 34.2 µM
SNB-19 CNS
  TGI: 36.2 µM
SK-MEL-28 melanoma
  TGI: 29 µM
MDA-N
  TGI: 16.7 µM
HOP-62 NSCLC
  TGI: 37.9 µM
786-0 renal
  TGI: 3.74 µM
DU-145 prostate
  TGI: 19.9 µM
OVCAR-4 ovarian
  TGI: 32.1 µM
SK-MEL-5 melanoma
  TGI: > 50.4 µM
HT29 colon
  TGI: 3.28 µM
ACHN renal
  TGI: 3.4 µM
EKVX NSCLC
  TGI: 29.1 µM
OVCAR-8 ovarian
  TGI: 4.7 µM
HL-60(TB) leukemia
  TGI: 6.37 µM
HS 578T breast
  TGI: 50.3 µM
MDA-MB-231 breast
  TGI: 15.5 µM
A549 NSCLC
  TGI: > 51.2 µM
SR leukemia
  TGI: > 21.2 µM
NCI-H460 lung
  TGI: 26.7 µM
UACC-257 melanoma
  TGI: 25.9 µM
PC-3 prostate
  TGI: 23.1 µM
RPMI-8226 leukemia
  TGI: > 23.8 µM
HCT-15 colon
  TGI: 4.86 µM
SF-268 CNS
  TGI: 47.4 µM
SF-295 CNS
  TGI: 30.6 µM
SNB-75 CNS
  TGI: 27.8 µM
LOX IMVI melanoma
  TGI: 4.27 µM
M14 melanoma
  TGI: > 48.3 µM
KM12 colon
  TGI: 9.16 µM
BT-549 breast
  TGI: 13.8 µM
OVCAR-3 ovarian
  TGI: 11.2 µM
T-47D breast
  TGI: 26.3 µM
MALME-3M melanoma
  TGI: 34.6 µM
TK-10 renal
  TGI: 3.32 µM
NCI/ADR-RES ovarian
  TGI: 3.95 µM
UACC-62 melanoma
  TGI: 29 µM
IGROV1 ovarian
  TGI: 11.4 µM
A498 renal
  TGI: 33.7 µM
